pEC50, pIC50: −log10 of the molar value. Like-named read-outs stand apart in the source and are kept apart here.
Columns and labels:
[1] = system: HBV; experiment: Determination of HBV DNA from the supernatants of HepAD38 cells (anti-HBV activity); assay type: cell-based, hepatitis B virus; conditions: Hepatitis B virus, read-out: Cell Activity (EC50)
Method in brief: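 Supernatant viral DNA was measured by LightCycler qPCR, calibrated with pCH-9/3091 plasmid, 6 days after tetracycline-free HepAD38 cultures received half-log serial compound dilutions; untreated and tetracycline-treated cells served as controls; EC50 was fitted by non-linear regression.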

[2] = molecular target: T1, HBV core protein (UniProt P03146); experiment: Biochemical capsid assembly assay (fluorescence quenching); set-up: species or system hepatitis B virus; conditions: read-out: Assembly Activity (IC50); BODIPY-FL labelled core protein, 300 μM NaCl, read 6 min after start
T1 construct: fused on or other part: BODIPY-FL maleimide label on the C-terminal Cys150
Procedure: Biochemical Capsid Assembly Assay
The screening for assembly effector activity was done based on a fluorescence quenching assay published by Zlotnick et al. (2007). The C-terminal truncated core protein containing 149 amino acids of the N-terminal assembly domain fused to a unique cysteine residue at position 150 and was expressed in E. coli using the pET expression system (Merck Chemicals, Darmstadt). Purification of core dimer protein was performed using a sequence of size exclusion chromatography steps. In brief, the cell pellet from 1 L BL21 (DE3) Rosetta2 culture expressing the coding sequence of core protein cloned NdeI/XhoI into expression plasmid pET21b was treated for 1 h on ice with a native lysis buffer (Qproteome Bacterial Protein Prep Kit; Qiagen, Hilden). After a centrifugation step the supernatant was precipitated during 2 h stirring on ice with 0.23 g/ml of solid ammonium sulfate. Following further centrifugation the resulting pellet was resolved in buffer A (100 mM Tris, pH 7.5; 100 mM NaCl; 2 mM DTT) and was subsequently loaded onto a buffer A equilibrated CaptoCore 700 column (GE HealthCare, Frankfurt). The column flow through containing the assembled HBV capsid was dialyzed against buffer N (50 mM NaHCO3 pH 9.6; 5 mM DTT) before urea was added to a final concentration of 3M to dissociate the capsid into core dimers for 1.5 h on ice. The protein solution was then loaded onto a 1 L Sephacryl S300 column. After elution with buffer N core dimer containing fractions were identified by SDS-PAGE and subsequently pooled and dialyzed against 50 mM HEPES pH 7.5; […]. To improve the assembly capacity of the purified core dimers a second round of assembly and disassembly starting with the addition of 5 M NaCl and including the size exclusion chromatography steps described above was performed. From the last chromatography step core dimer containing fractions were pooled and stored in aliquots at concentrations between 1.5 to 2.0 mg/ml at −80° C.
Immediately before labelling the core protein was reduced by adding freshly prepared DTT in a final concentration of 20 mM. After 40 min incubation on ice storage buffer and DTT was removed using a Sephadex G-25 column (GE HealthCare, Frankfurt) and 50 mM HEPES, pH 7.5. For labelling 1.6 mg/ml core protein was incubated at 4° C. and darkness overnight with BODIPY-FL maleimide (Invitrogen, Karlsruhe) in a final concentration of 1 mM. After labelling the free dye was removed by an additional desalting step using a Sephadex G-25 column. Labelled core dimers were stored in aliquots at 4° C. In the dimeric state the fluorescence signal of the labelled core protein is high and is quenched during the assembly of the core dimers to high molecular capsid structures. The screening assay was performed in black 384 well microtiter plates in a total assay volume of 10 μl using 50 mM HEPES pH 7.5 and 1.0 to 2.0 μM labelled core protein. Each screening compound was added in 8 different concentrations using a 0.5 log-unit serial dilution starting at a final concentration of 100 μM, 31.6 μM or 10 μM, In any case the DMSO concentration over the entire microtiter plate was 0.5%. The assembly reaction was started by the injection of NaCl to a final concentration of […] which induces the assembly process to approximately 25% of the maximal quenched signal. 6 min after starting the reaction the fluorescence signal was measured using a Clariostar plate reader (BMG Labtech, Ortenberg) with an excitation of 477 nm and an emission of 525 nm. As 100% and 0% assembly control HEPES buffer containing 2.5 M and 0 M NaCl was used. Experiments were performed thrice in triplicates. EC50 values were calculated by non-linear regression analysis using the Graph Pad Prism 6 software (GraphPad Software, La Jolla, USA).

[3] = Cell viability assay (AlamarBlue) in HepAD38 cells; conditions: human
[4] = 144 h, HBV DNA in HepAD38 supernatant, day 6, qPCR

T1 sequence (P03146 whole entry, looked up, the tested form may be a part): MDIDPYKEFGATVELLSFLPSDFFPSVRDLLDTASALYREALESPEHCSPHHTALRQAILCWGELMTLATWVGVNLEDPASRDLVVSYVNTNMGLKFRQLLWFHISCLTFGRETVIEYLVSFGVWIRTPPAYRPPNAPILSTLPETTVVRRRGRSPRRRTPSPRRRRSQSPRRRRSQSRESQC

Compound	pEC50 [1, 4]	pIC50 [2]	CC50 at 6 days [3]	pEC50 ([1]; HePAD38, 144 h)
CC(C)(O)C1CN(C(=O)c2n[nH]c3c2CN(C(=O)c2cc4ccccc4[nH]2)CC3)C1 [Example 39, 2-{1-[5-(1H-indole-2-carbonyl)-1H,4H,5H,6H,7H-pyrazolo[4,3-c]pyridine-3-carbonyl]azetidin-3-yl}propan-2-ol]	4.60 to 6.00	> 4.00	> 32 µM	
O=C(c1cc2ccccc2[nH]1)N1CCc2[nH]nc(C(=O)N3CC(O)C3)c2C1 [Example 40, 1-[5-(1H-indole-2-carbonyl)-1H,4H,5H,6H,7H-pyrazolo[4,3-c]pyridine-3-carbonyl]azetidin-3-ol]	4.60 to 6.00	> 5.30	> 100 µM	
CC(O)CN(C)C(=O)c1n[nH]c2c1CN(C(=O)c1cc3ccccc3[nH]1)CC2 (stereo not drawn) [Example 41, N-(2-hydroxypropyl)-5-(1H-indole-2-carbonyl)-N-methyl-1H,4H,5H,6H,7H-pyrazolo[4,3-]pyridine-3-carboxamide]	> 6.00	> 5.30	> 100 µM	
CC(CO)N(C)C(=O)c1n[nH]c2c1CN(C(=O)c1cc3ccccc3[nH]1)CC2 (stereo not drawn) [Example 42, N-(1-hydroxypropan-2-yl)-5-(1H-indole-2-carbonyl)-N-methyl-1H,4H,5H,6H,7H-pyrazolo[4,3-c]pyridine-3-carboxamide]	4.60 to 6.00	5.00 to 5.30	> 100 µM	
CN(CC(C)(C)O)C(=O)c1n[nH]c2c1CN(C(=O)c1cc3ccccc3[nH]1)CC2 [Example 43, N-(2-hydroxy-2-methylpropyl)-5-(1H-indole-2-carbonyl)-N-methyl-1H,4H,5H,6H,7H-pyrazolo[4,3-c]pyridine-3-carboxamide]	> 6.00	5.00 to 5.30	> 32 µM	
O=C(c1cc2ccccc2[nH]1)N1CCc2[nH]nc(C(=O)N3CC(CCO)C3)c2C1 [Example 44, 2-{1-[5-(1H-indole-2-carbonyl)-1H,4H,5H,6H,7H-pyrazolo[4,3-c]pyridine-3-carbonyl]azetidin-3-yl}ethan-1-ol]	4.60 to 6.00	> 4.00	> 100 µM	
O=C(c1cc2ccccc2[nH]1)N1CCc2[nH]nc(C(=O)N3CC(CO)C3)c2C1 [Example 45, {1-[5-(1H-indole-2-carbonyl)-1H,4H,5H,6H,7H-pyrazolo[4,3-c]pyridine-3-carbonyl]azetidin-3-yl}methanol]	4.60 to 6.00	> 4.00	> 100 µM	
O=C(c1cc2c(Cl)cc(F)cc2[nH]1)N1CCc2[nH]nc(-c3cscn3)c2C1 [Example 46, 4-chloro-6-fluoro-2-[3-(1,3-thiazol-4-yl)-1H,4H,5H,6H,7H-pyrazolo[4,3-c]pyridine-5-carbonyl]-1H-indole]	> 6.00	> 5.30	> 100 µM	
O=C(c1cc2ccccc2[nH]1)N1CCc2[nH]nc(-c3cscn3)c2C1 [Example 47, 2-[3-(1,3-thiazol-4-yl)-1H,4H,5H,6H,7H-pyrazolo[4,3-c]pyridine-5-carbonyl]-1H-indole]	> 6.00	> 5.30	> 100 µM	
CC(C)[C@H](N)C(=O)OCCN(C)C(=O)c1n[nH]c2c1CN(C(=O)c1cc3ccccc3[nH]1)CC2 [Example 48, 2-{1-[5-(1H-indole-2-carbonyl)-1H,4H,5H,6H,7H-pyrazolo[4,3-c]pyridin-3-yl]-N-methylformamido}ethyl (2S)-2-amino-3-methylbutanoate]	> 6.00	> 5.30	> 32 µM	
CC(O)c1cc(F)cc2[nH]c(C(=O)N3CCc4[nH]nc(C(=O)N(C)CCO)c4C3)cc12 (stereo not drawn) [Example 49, 5-[6-fluoro-4-(1-hydroxyethyl)-1H-indole-2-carbonyl]-N-(2-hydroxyethyl)-N-methyl-1H,4H,5H,6H,7H-pyrazolo[4,3-c]pyridine-3-carboxamide]	> 4.00	> 4.00	> 100 µM	
CC(O)c1cccc2[nH]c(C(=O)N3CCc4[nH]nc(C(=O)N(C)CCO)c4C3)cc12 (stereo not drawn) [Example 50, N-(2-hydroxyethyl)-5-[4-(1-hydroxyethyl)-1H-indole-2-carbonyl]-N-methyl-1H,4H,5H,6H,7H-pyrazolo[4,3-c]pyridine-3-carboxamide]	> 4.00	> 4.00	> 32 µM	
CN(CCO)C(=O)c1n[nH]c2c1CN(C(=O)c1cc3c(Cl)c(F)ccc3[nH]1)CC2 [Example 51, 5-(4-chloro-5-fluoro-1H-indole-2-carbonyl)-N-(2-hydroxyethyl)-N-methyl-1H,4H,5H,6H,7H-pyrazolo[4,3-c]pyridine-3-carboxamide]	> 6.00	> 5.30	> 100 µM	
CN(CCO)C(=O)c1n[nH]c2c1CN(C(=O)c1cc3c(F)c(F)ccc3[nH]1)CC2 [Example 52, 5-(4,5-difluoro-1H-indole-2-carbonyl)-N-(2-hydroxyethyl)-N-methyl-1H,4H,5H,6H,7H-pyrazolo[4,3-c]pyridine-3-carboxamide]	> 6.00	> 5.30	> 100 µM	
CN(CCO)C(=O)c1n[nH]c2c1CN(C(=O)c1cc3c(F)ccc(F)c3[nH]1)CC2 [Example 53, 5-(4,7-difluoro-1H-indole-2-carbonyl)-N-(2-hydroxyethyl)-N-methyl-1H,4H,5H,6H,7H-pyrazolo[4,3-c]pyridine-3-carboxamide]	> 6.00	> 5.30	> 100 µM	
COCCN(C)C(=O)c1n[nH]c2c1CN(C(=O)c1cc3ccccc3[nH]1)CC2 [Example 54, 5-(1H-indole-2-carbonyl)-N-(2-methoxyethyl)-N-methyl-1H,4H,5H,6H,7H-pyrazolo[4,3-c]pyridine-3-carboxamide]	> 6.00	> 5.30	> 100 µM	
Cc1cccc2[nH]c(C(=O)N3CCc4[nH]nc(C(=O)N(C)OCCOP(=O)(N[C@@H](C)C(=O)OC(C)C)Oc5ccccc5)c4C3)cc12 (stereo partly drawn) [Example 55, propan-2-yl (2S)-2-({[2-({N-methyl-1-[5-(4-methyl-1H-indole-2-carbonyl)-1H,4H,5H,6H,7H-pyrazolo[4,3-c]pyridin-3-yl]formamido}oxy)ethoxy](phenoxy)phosphoryl}amino)propanoate]		> 5.30	> 32 µM	> 6.00
CC(C)OC(=O)[C@H](C)NP(=O)(OCCON(C)C(=O)c1n[nH]c2c1CN(C(=O)c1cc3c(Cl)cccc3[nH]1)CC2)Oc1ccccc1 (stereo partly drawn) [Example 56, propan-2-yl (2S)-2-({[2-({1-[5-(4-chloro-1H-indole-2-carbonyl)-1H,4H,5H,6H,7H-pyrazolo[4,3-c]pyridin-3-yl]-N-methylformamido}oxy)ethoxy](phenoxy)phosphoryl}amino)propanoate]		> 5.30	> 32 µM	> 6.00
CN(CCO)C(=O)c1n[nH]c2c1CN(C(=O)c1cc3ccc(Cl)cc3[nH]1)CC2 [Example 57, 5-(6-chloro-1H-indole-2-carbonyl)-N-(2-hydroxyethyl)-N-methyl-1H,4H,5H,6H,7H-pyrazolo[4,3-c]pyridine-3-carboxamide]	> 6.00	> 5.30	> 100 µM	

From patent publication US11236087B2, “Highly active pyrazolo-piperidine substituted indole-2-carboxamides active against the hepatitis B virus (HBV)” (AiCuris GmbH & Co. KG, priority 2017, dated 2022)
